Test system: postpartum human fetal membranes
Assay: Permeability of postpartum human fetal membranes to FITC-Dextran in a vertical glass diffusion cell after incubation with a substance
Settings: FIG. 8, 30 minutes incubation, FITC-Dextran 77 KDa, maternal side facing donor compartment
Procedure: The permeability of postpartum human fetal membranes (obtained from Hillel Yaffe Medical Center, Israel) upon exposure to different substances was determined. The experimental set-up used is shown schematically in FIG. 7. […] The membrane 171 was first incubated with a substance 176 added to the donor compartment 173. After 30 minutes of incubation, the substance was removed from the donor compartment 173. The donor compartment was then washed with PBS, and the donor and receiver compartments were filled with 0.01M phosphate buffered Saline (PBS) 175. 5 mL of a 0.5 mg/mL Dextran solution in PBS (average molecular weight of the Dextran 77 KDa) conjugated to the fluorescent label FITC (fluorescein isothiocyanate-Dextran)) 179 was added to the donor compartment 173. The diffusion cell 172 was protected from light in order to prevent fluorescent bleaching of the FITC. 1 mL samples were withdrawn from the receiver compartment 174 at various times with constant stirring of the receiver compartment, and the concentration of the FITC in the samples was determined spectofluorimetrically.
From the rate of increase in the concentration of the fluorescence in the receiver compartment 174, the extent of permeability enhancement of the membrane, in comparison to a control experiment was calculated.

## CC(C)CCCCCCCCCCCCCCC(=O)O [iso-stearic acid]
Substance at 10%
  enhancement in permeability of the membrane compared to control: Enhanced permeability

## CN1CCCC1=O [N-methy-2-pyrrolidone (NMP), N-methy-2-pyrrolidone]
Concentration not given
  enhancement in permeability of the membrane compared to control: Enhanced permeability

## CCCCCCCC/C=C\CCCCCCCC(=O)O [Oleic acid]
Substance at 1.5%
  enhancement in permeability of the membrane compared to control: Enhanced permeability

## OCCO [ethylene glycol]
Substance at 10%
  enhancement in permeability of the membrane compared to control: Enhanced permeability

## CCCCN1CCCCC1C(=O)Nc1c(C)cccc1C (stereo not shown) [bupivacaine]
Substance at 0.5%
  enhancement in permeability of the membrane compared to control: Enhanced permeability

## CCCCCCCCCCCCCCCC[N+](C)(C)C.[Br-] [Cetyl trimethylammonium bromide (CTAB), Cetyl trimethylammonium bromide]
Substance at 4%
  enhancement in permeability of the membrane compared to control: Enhanced permeability

## CCCCCCCCCCCCOS(=O)(=O)[O-].[Na+] [SLS, sodium lauryl sulfate]
Substance at 1%
  enhancement in permeability of the membrane compared to control: Enhanced permeability

From US20110319790A1, “PHARMACEUTICAL COMPOSITION AND SYSTEM FOR PERMEABILIZING FETAL MEMBRANES” (B.G. NEGEV TECHNOLOGIES AND APPLICATIONS LTD., priority 2008, published 2011)
